# Measurements reported in patent US9353113B2, “Tetrahydrocarboline derivative” (ONO PHARMACEUTICAL CO., LTD., priority 2011, dated 2016).
# Where a name gives a salt, the structure may show the parent alone.
# System: Crl:CD (Sparague-Dawley) male rat
# Assay: Measurement of blood pressure, heart rate in rat under wakefulness
# Type: in vivo
# Conditions: conscious rat, 100, 300 mg/kg forcedly orally administered, up to 180 minutes
# Procedure: A Crl:CD (Sparague-Dawley) male rat (Charles River Laboratories Japan, Inc., 8 weeks old) was anesthetized by inhalation of isoflurane. A catheter (INTRAMEDIC POLYETHYLENE Tubing PE50, CLAY ADAMS) was inserted and indwelled in a femoral artery and another end was exposed from dorsal skin. The rat was placed in a rearing cage for blood pressure measurement. After elapse of 2 hours or more from the insertion of the catheter, each of the compound of Reference Example 2 and the compound of Example 6(72) (dose: 100, 300 mg/kg) was forcedly orally administered, and blood pressure was measured under no anesthesia and no restraint. The blood pressure was measured by connecting the catheter inserted in the femoral artery and a blood pressure transducer (DX-360, Nihon Kohden Corporation) and passing through an amplifier for blood pressure measurement (Coupler•Amplifier PP-101HAP-101H, Nihon Kohden Corporation). Blood pressure signals were captured into a data acquisition analysis system (HEM 3.5, NOTOCORD SYSTEM S.A.) through a polygraph system (PEG-1000, Nihon Kohden Corporation) to measure blood pressure (systolic pressure, diastolic pressure, mean blood pressure) and heart rate (measured from blood pressure pulse wave). […] The data were accumulated as measured values at respective time points and % variation values in which each value before administration was taken as 100.
row,Structure (SMILES),"influence on a circulatory organ (blood pressure, heart rate)"
1,"CCc1cccc(Cn2c3c(c4cccnc42)CCN(C(=O)CC24CCC(C(=O)O)(CC2)C4)C3)c1 [Example 6(72), 4-{2-[9-(3-ethylbenzyl)-5,6,8,9-tetrahydro-7H-pyrido[4′,3′:4,5]pyrrolo[2,3-b]pyridin-7-yl]-2-oxoethyl}bicyclo[2.2.1]heptane-1-carboxylic acid]",no influence of the compound of Example 6(72) that is a compound of the present invention was observed on a circulatory organ
2,"O=C(C[C@H]1CC[C@H](C(=O)O)CC1)N1CCc2c(n(Cc3ccc(F)cc3F)c3ncccc23)C1 [Reference Example 2, trans-4-{2-[9-(2,4-difluorobenzyl)-5,6,8,9-tetrahydro-7H-pyrido[4′,3′:4,5]pyrrolo[2,3-b]pyridin-7-yl}-2-oxoethyl]cyclohexanecarboxylic acid, reference compound]",An influence of the compound of Reference Example 2 on a circulatory organ was observed

# System: SD male rat
# Assay: Measurement of urethra internal pressure in rat under anesthesia
# Type: in vivo
# Conditions: dose 1.0 mg/kg intravenously
# Text: A SD male rat (Crl: CD(SD), Charles River Laboratories Japan, Inc., 7-10 weeks old) which has fasted since the evening of the day before this experiment was anesthetized by subcutaneous administration of 1.5 g/kg urethane at a back of a neck. After an abdominal part was median incised, a catheter for duodenum was inserted within lumen of duodenum and then tied down by string. A lower abdominal part was median incised, and a urethra was ligated at around pubis. A urethral catheter for measuring a urethra internal pressure, equipped with a collar at a tip and filled with a physiological saline was inserted into a urethra through an incised bladder top, and ligation-fixed at a bladder neck part. The urethral catheter was connected to a pressure transducer (manufactured by Nihon Kohden Corporation), and a urethra internal pressure was measured. […] A urethra internal pressure reduction rate (%) was calculated based on a urethra internal pressure after compound administration, wherein a value obtained by subtracting a postmorten basline value (minimum value of urethra internal pressure for 10 minutes after administration of somnopentyl) from a urethra internal pressure value before compound administration (0 minute) was 100%.
row,Structure (SMILES),urethra internal pressure reduction rate [%]
1,"CCc1cccc(Cn2c3c(c4cccnc42)CCN(C(=O)CC24CCC(C(=O)O)(CC2)C4)C3)c1 [Example 6(72), 4-{2-[9-(3-ethylbenzyl)-5,6,8,9-tetrahydro-7H-pyrido[4′,3′:4,5]pyrrolo[2,3-b]pyridin-7-yl]-2-oxoethyl}bicyclo[2.2.1]heptane-1-carboxylic acid]",25

# Target: human ENPP2 (Homo sapiens (Human), UniProt Q13822)
# Assay: Measurement of human ENPP2 inhibitory activity
# Type: biochemical
# Conditions: human ENPP2, 16:0-LPC substrate
# Procedure: 10 μL of a test compound solution (10% dimethyl sulfoxide) at each concentration and 40 μL of a 5 μg/mL human ENPP2 solution (buffer A: 100 mmol/L Tris-HCl (pH 9.0), 500 mmol/L NaCl, 5 mmol/L MgCl2, 0.05% Triton X-100) were mixed, 50 μL of a 2 mmol/L 16:0-lysophosphatidylcholine (LPC) solution (buffer A) was further added to react at 37° C. for 24 hours. Subsequently, to 10 ill, of the reaction solution was added 90 III, of a measurement buffer (0.5 mmol/L aminoantipyrine, 0.3 mmol/L N-ethyl-N-(2-hydroxy-3-sulfopropyl)-3-methylaniline, 1 U/mL peroxidase, 3 U/mL choline oxidase, 100 mmol/L Tris-HCl (pH 8.5), 5 mmol/L CaCl2) to react at 37° C. for 20 minutes, and spectrophotometric determination was performed at 555 nm.
# Using a standard curve, a choline production amount (enzyme activity) in each test compound was calculated, and the inhibitory activity rate of each test compound was calculated, wherein the enzyme activity in a positive control to which a test compound is not added, was a 0% inhibition rate, and the enzyme activity in a negative control to which a test compound and human ENPP2 are not added, were 100% inhibition. Further, concerning the present compounds shown in Table 3, an IC50 value was calculated from inhibitory activity rate at each concentration.
row,Structure (SMILES),IC50 [nM]
1,"C[C@@H]1CN(CC(=O)N2CCc3c(n(Cc4ccc(C(F)(F)F)s4)c4ncccc34)C2)C[C@H](C)N1CC(=O)O [Example 7(41), rel-{(2R,6S)-2,6-dimethyl-4-[2-oxo-2-(9-{[5-(trifluoromethyl)-2-thienyl]methyl}-5,6,8,9-tetrahydro-7H-pyrido[4′,3′:4,5]pyrrolo[2,3-b]pyridin-7-yl)ethyl]-1-piperazinyl}acetic acid dihydrochloride]",4.9
2,"Cc1nc(C(F)(F)F)sc1Cn1c2c(c3cccnc31)CCN(C(=O)C[C@H]1CC[C@@](C)(C(=O)O)C1(C)C)C2 [Example 6(63), (1R,3R)-1,2,2-trimethyl-3-[2-(9-{[4-methyl-2-(trifluoromethyl)-1,3-thiazol-5-yl]methyl}-5,6,8,9-tetrahydro-7H-pyrido[4′,3′:4,5]pyrrolo[2,3-b]pyridin-7-yl)-2-oxoethyl]cyclopentanecarboxylic acid]",8
3,"O=C(CC12CCC(C(=O)O)(CC1)C2)N1CCc2c(n(Cc3cnc(C(F)(F)F)s3)c3ncccc23)C1 [Example 6(65), 4-[2-oxo-2-(9-{[2-(trifluoromethyl)-1,3-thiazol-5-yl]methyl}-5,6,8,9-tetrahydro-7H-pyrido[4′,3′:4,5]pyrrolo[2,3-b]pyridin-7-yl)ethyl]bicyclo[2.2.1]heptane-1-carboxylic acid]",5.1
4,"O=C(O)C1CCN(CC(=O)N2CCc3c(n(Cc4ccc(OC(F)(F)F)cc4)c4ncccc34)C2)CC1 [Example 7(3), 1-(2-oxo-2-{9-[4-(trifluoromethoxy)benzyl]-5,6,8,9-tetrahydro-7H-pyrido[4′,3′:4,5]pyrrolo[2,3-b]pyridin-7-yl}ethyl)-4-piperidinecarboxylic acid hydrochloride]",28
5,"CC1(C)[C@@H](CC(=O)N2CCc3c(n(Cc4ccc(C(F)(F)F)cc4)c4ncccc34)C2)CC[C@@]1(C)C(=O)O [Example 6(53), (1R,3R)-1,2,2-trimethyl-3-(2-oxo-2-{9-[4-(trifluoromethyl)benzyl]-5,6,8,9-tetrahydro-7H-pyrido[4′,3′:4,5]pyrrolo[2,3-b]pyridin-7-yl}ethyl)cyclopentanecarboxylic acid]",10
6,"CC(C)(CCCC(=O)N1CCc2c(n(Cc3cnc(C(F)(F)F)s3)c3ncccc23)C1)C(=O)O [Example 3(50), 2,2-dimethyl-6-oxo-6-(9-{[2-(trifluoromethyl)-1,3-thiazol-5-yl]methyl}-5,6,8,9-tetrahydro-7H-pyrido[4′,3′:4,5]pyrrolo[2,3-b]pyridin-7-yl)hexanoic acid]",4.5
7,"O=C(O)C1=CCN(CC(=O)N2CCc3c(n(Cc4ccc(C(F)(F)F)s4)c4ncccc34)C2)CC1 [Example 7(45), 1-[2-oxo-2-(9-{[5-(trifluoromethyl)-2-thienyl]methyl}-5,6,8,9-tetrahydro-7H-pyrido[4′,3′:4,5]pyrrolo[2,3-b]pyridin-7-yl)ethyl]-1,2,3,6-tetrahydro-4-pyridinecarboxylic acid]",16

# The next lines start with the values.
row,IC50 [nM],Structure (SMILES)
1,17,"C[C@]1(C(=O)O)CC[C@H](CC(=O)N2CCc3c(n(Cc4ccc(C(F)(F)F)s4)c4ncccc34)C2)CC1 [Example 10(2), trans-1-methyl-4-[2-oxo-2-(9-{[5-(trifluoromethyl)-2-thienyl]methyl}-5,6,8,9-tetrahydro-7H-pyrido[4′,3′:4,5]pyrrolo[2,3-b]pyridin-7-yl)ethyl]cyclohexanecarboxylic acid]"
2,8.4,"COc1cc(CC(=O)N2CCc3c(n(Cc4sc(C(F)(F)F)nc4C)c4ncccc34)C2)cc(OC)c1C(=O)O [Example 11(24), 2,6-dimethoxy-4-[2-(9-{[4-methyl-2-(trifluoromethyl)-1,3-thiazol-5-yl]methyl}-5,6,8,9-tetrahydro-7H-pyrido[4′,3′:4,5]pyrrolo[2,3-b]pyridin-7-yl)-2-oxoethyl]benzoic acid]"
3,3.8,"C[C@]1(C(=O)O)CC[C@H](CC(=O)N2CCc3c(n(Cc4cnc(C(F)(F)F)s4)c4ncccc34)C2)CC1 [Example 10(5), trans-1-methyl-4-[2-oxo-2-(9-{[2-(trifluoromethyl)-1,3-thiazol-5-yl]methyl}-5,6,8,9-tetrahydro-7H-pyrido[4′,3′:4,5]pyrrolo[2,3-b]pyridin-7-yl)ethyl]cyclohexanecarboxylic acid]"
4,12,"O=C(CCCC1(C(=O)O)CC1)N1CCc2c(n(Cc3ccc(C(F)(F)F)s3)c3ncccc23)C1 [Example 9(1), 1-[4-oxo-4-(9-{[5-(trifluoromethyl)-2-thienyl]methyl}-5,6,8,9-tetrahydro-7H-pyrido[4′,3′:4,5]pyrrolo[2,3-b]pyridin-7-yl)butyl]cyclopropanecarboxylic acid]"
5,5.4,"COc1cc(CC(=O)N2CCc3c(n(Cc4ccc(OC(F)(F)F)cc4)c4ncccc34)C2)ccc1C(=O)O [Example 11(12), 2-methoxy-4-(2-oxo-2-{9-[4-(trifluoromethoxy)benzyl]-5,6,8,9-tetrahydro-7H-pyrido[4′,3′:4,5]pyrrolo[2,3-b]pyridin-7-yl}ethyl)benzoic acid]"
6,14,"O=C(C[C@H]1CC[C@H](C(=O)O)CC1)N1CCc2c(n(Cc3ccc(F)cc3F)c3ncccc23)C1 [Reference Example 2, trans-4-{2-[9-(2,4-difluorobenzyl)-5,6,8,9-tetrahydro-7H-pyrido[4′,3′:4,5]pyrrolo[2,3-b]pyridin-7-yl}-2-oxoethyl]cyclohexanecarboxylic acid, reference compound]"
